According to the NIST ThermoML archive (doi:10.1021/je0601356):
“And” between values parts separate entries of the source, which are not always exact repeats. Identical values can stand only once.

Settings: Liquid, Vibrating wire viscometry

FC(F)C(F)(F)F [pentafluoroethane]
Settings | viscosity
253.99 K, 1440 kPa | 0.2707 mPa·s
253.99 K, 1450 kPa | 0.271 mPa·s
253.99 K, 1460 kPa | 0.271 mPa·s
253.99 K, 1470 kPa | 0.2711 mPa·s
253.99 K, 1480 kPa | 0.2707 mPa·s
253.99 K, 3250 kPa | 0.2794 mPa·s
253.99 K, 3280 kPa | 0.2794 mPa·s and 0.279 mPa·s and 0.2789 mPa·s
253.99 K, 5050 kPa | 0.2876 mPa·s
253.99 K, 5060 kPa | 0.2874 mPa·s
253.99 K, 5100 kPa | 0.2875 mPa·s
253.99 K, 5140 kPa | 0.2875 mPa·s
253.99 K, 7350 kPa | 0.2984 mPa·s
253.99 K, 7360 kPa | 0.2984 mPa·s
253.99 K, 7380 kPa | 0.2982 mPa·s
263.23 K, 1430 kPa | 0.2381 mPa·s
263.23 K, 1440 kPa | 0.2373 mPa·s and 0.2375 mPa·s
263.23 K, 1460 kPa | 0.2382 mPa·s
263.23 K, 1480 kPa | 0.2377 mPa·s
263.23 K, 3050 kPa | 0.2452 mPa·s
263.23 K, 3060 kPa | 0.2453 mPa·s
263.23 K, 3070 kPa | 0.2456 mPa·s
263.23 K, 5030 kPa | 0.2531 mPa·s
263.23 K, 5050 kPa | 0.2529 mPa·s
263.23 K, 5060 kPa | 0.2535 mPa·s
263.23 K, 5070 kPa | 0.2538 mPa·s
263.23 K, 5080 kPa | 0.2538 mPa·s
263.23 K, 5110 kPa | 0.2534 mPa·s
263.23 K, 7530 kPa | 0.2643 mPa·s
263.23 K, 7560 kPa | 0.2645 mPa·s
263.23 K, 7610 kPa | 0.2645 mPa·s
263.23 K, 7640 kPa | 0.2646 mPa·s
263.23 K, 9770 kPa | 0.2743 mPa·s
263.23 K, 9800 kPa | 0.274 mPa·s
263.23 K, 9820 kPa | 0.2745 mPa·s
273.08 K, 1460 kPa | 0.2076 mPa·s
273.08 K, 1480 kPa | 0.2075 mPa·s
273.08 K, 1490 kPa | 0.2074 mPa·s
273.08 K, 1500 kPa | 0.2074 mPa·s and 0.2073 mPa·s
273.08 K, 2940 kPa | 0.2147 mPa·s
273.08 K, 2950 kPa | 0.2145 mPa·s
273.08 K, 2990 kPa | 0.2145 mPa·s
273.08 K, 5020 kPa | 0.2234 mPa·s
273.08 K, 5030 kPa | 0.2229 mPa·s and 0.2233 mPa·s
273.08 K, 5040 kPa | 0.2224 mPa·s and 0.2226 mPa·s
273.08 K, 7480 kPa | 0.2324 mPa·s
273.08 K, 7490 kPa | 0.2327 mPa·s and 0.2324 mPa·s
273.08 K, 7510 kPa | 0.2324 mPa·s
273.08 K, 7520 kPa | 0.2326 mPa·s
273.08 K, 7530 kPa | 0.2324 mPa·s
273.08 K, 9680 kPa | 0.2416 mPa·s
273.08 K, 9690 kPa | 0.2419 mPa·s and 0.2421 mPa·s
273.08 K, 9710 kPa | 0.2416 mPa·s
283.29 K, 1550 kPa | 0.1781 mPa·s
283.29 K, 1580 kPa | 0.1789 mPa·s
283.29 K, 1590 kPa | 0.1788 mPa·s
283.29 K, 1600 kPa | 0.1785 mPa·s
283.29 K, 1620 kPa | 0.1783 mPa·s
283.29 K, 3000 kPa | 0.1852 mPa·s
283.29 K, 3010 kPa | 0.185 mPa·s
283.29 K, 3030 kPa | 0.1852 mPa·s
283.29 K, 3060 kPa | 0.185 mPa·s
283.29 K, 5190 kPa | 0.1957 mPa·s
283.29 K, 5220 kPa | 0.1955 mPa·s [middle of 4 runs]
283.29 K, 5230 kPa | 0.1953 mPa·s
283.29 K, 5270 kPa | 0.1956 mPa·s
283.29 K, 7590 kPa | 0.2059 mPa·s
283.29 K, 7600 kPa | 0.2057 mPa·s [middle of 5 runs]
283.29 K, 10040 kPa | 0.2155 mPa·s and 0.2159 mPa·s
283.29 K, 10050 kPa | 0.2155 mPa·s
283.29 K, 10070 kPa | 0.2155 mPa·s
283.29 K, 10080 kPa | 0.2157 mPa·s
293.13 K, 2020 kPa | 0.1577 mPa·s
293.13 K, 2030 kPa | 0.1581 mPa·s
293.13 K, 2070 kPa | 0.1583 mPa·s
293.13 K, 2100 kPa | 0.1584 mPa·s
293.13 K, 2110 kPa | 0.1583 mPa·s
293.13 K, 2140 kPa | 0.1583 mPa·s
293.13 K, 5080 kPa | 0.172 mPa·s
293.13 K, 5100 kPa | 0.1716 mPa·s
293.13 K, 5130 kPa | 0.1719 mPa·s and 0.1715 mPa·s
293.13 K, 7530 kPa | 0.1818 mPa·s and 0.1813 mPa·s and 0.1811 mPa·s
293.13 K, 9990 kPa | 0.1918 mPa·s
293.13 K, 10030 kPa | 0.1915 mPa·s
293.13 K, 10040 kPa | 0.1917 mPa·s [middle of 4 runs]
293.13 K, 10050 kPa | 0.1914 mPa·s
